Columns and labels:
[1] = biological target: T1, Caspase-1 (Homo sapiens, UniProt P29466, D381E); test: Compound was tested for inhibitory activity against N-His (D381E) Interleukin -1 beta converting enzyme (combinatorially prepared compound)
[2] = biological target: T1, Caspase-1; test: Compound was tested for inhibitory activity against N-His (D381E) Interleukin -1 beta converting enzyme (resynthesized compound)
[3] = biological target: T1, Caspase-1; test: Compound was tested for binding affinity against N-His (D381E) Interleukin -1 beta converting enzyme

T1 sequence (P29466 120-297 limits assumed): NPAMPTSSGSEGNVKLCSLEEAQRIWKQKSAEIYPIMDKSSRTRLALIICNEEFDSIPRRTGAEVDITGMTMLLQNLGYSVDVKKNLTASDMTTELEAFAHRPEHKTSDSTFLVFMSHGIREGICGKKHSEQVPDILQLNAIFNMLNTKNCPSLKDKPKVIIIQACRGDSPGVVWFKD
T1 sequence (P29466 317-404 D381E limits assumed): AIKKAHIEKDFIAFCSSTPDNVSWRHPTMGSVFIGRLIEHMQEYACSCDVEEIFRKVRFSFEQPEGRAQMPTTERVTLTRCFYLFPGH

SMILES	IC50 [1] [nM]	IC50 [2] [nM]	Ki [3] [nM]
O=C(O)C[C@H](NC(=O)OCc1ccccc1)C(=O)COC(=O)Cc1c(Cl)cccc1Cl	742	–	–
O=C(O)C[C@H](NC(=O)OCc1ccccc1)C(=O)COC(=O)CCc1ccccc1	12000	35000	4500
O=C(O)C[C@H](NC(=O)OCc1ccccc1)C(=O)COC(=O)Cc1c(Cl)ccc(Cl)c1Cl	936	–	–
CC(=O)NC(C(=O)N[C@@H](CC(=O)O)C(=O)COC(=O)Cc1c(Cl)ccc(Cl)c1Cl)C(C)C (stereo partly specified)	5	7	113
CC(=O)NC(C(=O)N[C@@H](CC(=O)O)C(=O)COC(=O)Cc1c(Cl)cccc1Cl)C(C)C (stereo partly specified)	5	8	82

From ChEMBL document CHEMBL1130945, “Rapid optimization of an ICE inhibitor synthesis using multiple reaction conditions in a parallel array” (Bioorg Med Chem Lett, 1998)
